# Read-outs that look alike come from different tables or passages of the source.
# Legend:
# Assay type in all cases: cell-based
# [1] = test system: Lactobacillus rhamnosus (CCM 7091); experiment: Broth microdilution MIC, L. rhamnosus; details: Lacticaseibacillus rhamnosus, CCM7091; Lactobacillus rhamnosus; growth inhibited by ≥80%; read-out: MIC
# [2] = test system: Lactobacillus casei (DSMZ 20011); experiment: Broth microdilution MIC, L. casei; details: Lacticaseibacillus casei, DSMZ20011; Lactobacillus casei; growth inhibited by ≥80%; read-out: MIC
# [3] = test system: Bifidobacterium breve (ATCC 15700); experiment: Broth microdilution MIC, B. breve; details: ATCC15700, growth inhibited by ≥80%, read-out: MIC
# [4] = test system: Bifidobacterium bifidum (ATCC 29521); experiment: Broth microdilution MIC, B. bifidum; details: ATCC29521, growth inhibited by ≥80%, read-out: MIC
# [5] = test system: diarrheagenic bacteria (12 strains); experiment: organism not typed
# [6] = test system: Bifidobacterium adolescentis (DSMZ 20087); experiment: Broth microdilution MIC, B. adolescentis; details: DSMZ20087, growth inhibited by ≥80%, read-out: MIC
# [7] = test system: Bacteroides fragilis (ATCC 25285); experiment: Broth microdilution MIC, B. fragilis
# [8] = test system: probiotic bacteria (9 strains); experiment: Broth microdilution MIC, probiotic bacteria as a group (mean or range over strains)
# [9] = test system: Enterococcus faecalis (ATCC 29212); experiment: Broth microdilution MIC, E. faecalis; details: ATCC29212, growth inhibited by ≥80%, read-out: MIC
# [10] = test system: intestinal cancer cells (HT29 and Caco-2); experiment: MTT cytotoxicity assay, mean for intestinal cancer cells; details: for IC50: mean of HT29 and Caco-2, >512 replaced with 1024, read-out: x¯ -CC ± SD: mean IC50 for intestinal cancer cells; for IC80: read-out: x¯ -CC ± SD: mean IC80 for intestinal cancer cells
# [11] = test system: Clostridium perfringens (DSMZ 11778); experiment: microbe, parasite or virus in culture; details: DSMZ11778
# [12] = test system: Caco-2 (ATCC HTB 37) intestinal cancer cells; experiment: MTT cytotoxicity assay, Caco-2; details: Homo sapiens, Caco-2, MTT, 72 h; for IC50: read-out: IC50 ± SD; for IC80: read-out: IC80 ± SD (80% inhibitory concentration of proliferation)
# [13] = test system: Clostridium difficile (DSMZ 12056); experiment: microbe, parasite or virus in culture; details: Clostridioides difficile, DSMZ12056
# [14] = test system: Yersinia enterocolitica (ATCC 9610); experiment: Broth microdilution MIC, Y. enterocolitica; details: ATCC9610, growth inhibited by ≥80%, read-out: MIC
# [15] = test system: Listeria monocytogenes (ATCC 7644); experiment: Broth microdilution MIC, L. monocytogenes; details: ATCC7644, growth inhibited by ≥80%, read-out: MIC
# [16] = test system: Shigella flexneri (ATCC 12022); experiment: microbe, parasite or virus in culture; details: ATCC12022
# [17] = test system: FHs 74 Int (ATCC CCL 241) intestinal normal cells; experiment: MTT cytotoxicity assay, FHs 74 Int; details: FHs 74 Int (intestinal normal cells), MTT, 72 h; for IC50 / IC80: FHs74Int; for IC50: read-out: IC50 ± SD; for IC80: read-out: IC80 ± SD (80% inhibitory concentration of proliferation)
# [18] = test system: Bacillus cereus (ATCC 14579); experiment: Broth microdilution MIC, B. cereus; details: median/mode, read-out: MIC
# [19] = test system: Salmonella enterica ssp. enterica serovar Enteritidis (ATCC 13076); experiment: Broth microdilution MIC, Salmonella Enteritidis; details: Salmonella Enteritidis, growth inhibited by ≥80%, read-out: MIC
# [20] = test system: E. coli 0175:H7 (NCTC 12900); experiment: microbe, parasite or virus in culture; details: Escherichia coli, NCTC12900
# [21] = test system: Vibrio parahaemolyticus (ATCC 17802); experiment: Broth microdilution MIC, V. parahaemolyticus; details: ATCC17802, growth inhibited by ≥80%, read-out: MIC
# [22] = test system: HT29 (ATCC HTB 38) intestinal cancer cells; experiment: MTT cytotoxicity assay, HT29; details: Homo sapiens, HT-29, HT29, MTT, 72 h; for IC50: read-out: IC50 ± SD; for IC80: read-out: IC80 ± SD (80% inhibitory concentration of proliferation)
# [23] = test system: Bifidobacterium animalis spp. lactis (DSMZ 10140); experiment: Broth microdilution MIC, B. animalis spp. lactis; details: DSMZ10140; Bifidobacterium animalis spp. lactis; growth inhibited by ≥80%; read-out: MIC
# [24] = test system: Escherichia coli (ATCC 25922); experiment: Broth microdilution MIC, E. coli; details: ATCC25922, growth inhibited by ≥80%, read-out: MIC
# [25] = test system: S. enterica ssp. enterica serovar Typhimurium (ATCC 14028); experiment: Broth microdilution MIC, Salmonella Typhimurium; details: Salmonella Typhimurium, growth inhibited by ≥80%, read-out: MIC
# [26] = test system: Bifidobacterium longum ssp. longum (DSMZ 20219); experiment: Broth microdilution MIC, B. longum ssp. longum; details: DSMZ20219; Bifidobacterium longum ssp. longum; growth inhibited by ≥80%; read-out: MIC
# [27] = test system: Lactobacillus reuteri (CCM 3625); experiment: Broth microdilution MIC, L. reuteri; details: Limosilactobacillus reuteri, CCM3625; Lactobacillus reuteri; growth inhibited by ≥80%; read-out: MIC
# [28] = test system: 21 strains (diarrheagenic and probiotic bacteria); experiment: organism not typed; details: any of the 21 strains
# [29] = mean of 12 strains, >512 replaced with 1024, read-out: x¯ -DB ± SD: mean MIC for diarrheagenic bacteria
# [30] = mean of 9 strains, >512 replaced with 1024, read-out: x¯ -PB ± SD: mean MIC for probiotic bacteria
# [31] = Clostridium difficile, […], read-out: MIC
# [32] = ATCC25285, growth inhibited by ≥80%, read-out: MIC
# [33] = ATCC14579, growth inhibited by ≥80%
SMILES,MIC [1] [µg/mL],MIC [2] [µg/mL],MIC [3] [µg/mL],MIC [4] [µg/mL],"MIC [5, 29] [µg/mL]",MIC [6] [µg/mL],"MIC [8, 30] [µg/mL]",MIC [9] [µg/mL],IC50 [10] [µg/mL],IC80 [10] [µg/mL],MIC [11] [µg/mL],IC50 [12] [µg/mL],IC80 [12] [µg/mL],MIC [14] [µg/mL],MIC [15] [µg/mL],MIC [16] [µg/mL],IC50 [17] [µg/mL],IC80 [17] [µg/mL],MIC [19] [µg/mL],MIC [20] [µg/mL],other results
"CO/N=C(\C(=O)N[C@@H]1C(=O)N2C(C(=O)O)=C(CSc3nc(=O)c(=O)[nH]n3C)CS[C@H]12)c1csc(N)n1 [CF, ceftriaxone sodium]",32,32,32,4,61.8 ± 141,1,26.6 ± 38,512,> 512,> 512,4,> 512,> 512,0.25,32,0.5,> 512,> 512,0.25,0.5,"MIC ([5]; all gram-negative diarrheagenic bacteria, range over strains, read-out: MICs): 0.062 to 0.5 µg/mL; MIC ([5]; gram-positive pathogens, range over strains, read-out: MICs): 4 to 512 µg/mL; MIC ([7]; ATCC25285): 128 µg/mL; MIC ([8]; Bifidobacterium breve and Bifidobacterium longum ssp. longum, read-out: MICs): 8 to 32 µg/mL; MIC ([8]; lactobacilli, range over strains, read-out: MICs): 0.5 to 32 µg/mL; MIC ([8]; remaining bifidobacteria (other than B. breve and B. longum ssp. longum), read-out: MICs): 1 to 4 µg/mL; MIC [13, 31]: 64 µg/mL; IC50 ± SD [17]: - (Not active (MIC/IC50/80 > 512 μg/mL, the value 1024 μg/mL was used for average calculation)); IC80 ± SD (80% inhibitory concentration of proliferation) [17]: - (Not active (MIC/IC50/80 > 512 μg/mL, the value 1024 μg/mL was used for average calculation)); MIC ([18]; ATCC14579, […]): 128 µg/mL; MIC [21]: 0.125 µg/mL; IC50 [22]: > 512 µg/mL; IC80 [22]: > 512 µg/mL; MIC [23]: 2 µg/mL; MIC [24]: 0.062 µg/mL; MIC [25]: 0.25 µg/mL; MIC [26]: 8 µg/mL; MIC [27]: 0.5 µg/mL"
"COc1ccc2cc3[n+](cc2c1OC)CCc1cc2c(cc1-3)OCO2 [BR, berberine chloride]",64,64,64,64,875 ± 256,128,277 ± 400,> 512,12.2 ± 7,60.5 ± 18.4,256,19.4 ± 2.9,78.9 ± 0.3,> 512,> 512,> 512,1 ± 0.1,26.4 ± 0.8,> 512,> 512,"MIC [7, 32]: > 512 µg/mL; MIC [28]: ≥ 32 µg/mL; MIC [13]: > 512 µg/mL; MIC [18, 33]: > 512 µg/mL; MIC [21]: 512 µg/mL; IC50 [22]: 5 ± 1 µg/mL; IC80 [22]: 42.1 ± 7.3 µg/mL; MIC [23]: 32 µg/mL; MIC [24]: > 512 µg/mL; MIC [25]: 512 µg/mL; MIC [26]: 32 µg/mL; MIC [27]: > 512 µg/mL"
"O=S(=O)(O)c1cc(I)c(O)c2ncccc12 [FRN, 7-iodo-8-hydroxyquinoline-5-sulfonic acid]",512,256,512,512,715 ± 388,256,384 ± 148,> 512,70.8 ± 16,145 ± 4.8,64,55.2 ± 4.8,140 ± 26,> 512,512,> 512,22.6 ± 3.3,46 ± 2.2,> 512,> 512,"MIC [7, 32]: 128 µg/mL; MIC [28]: ≥ 64 µg/mL; MIC [13, 31]: 64 µg/mL; MIC [18, 33]: 512 µg/mL; MIC [21]: 256 µg/mL; IC50 [22]: 86.3 ± 12 µg/mL; IC80 [22]: 149 ± 6 µg/mL; MIC [23]: 512 µg/mL; MIC [24]: > 512 µg/mL; MIC [25]: > 512 µg/mL; MIC [26]: 256 µg/mL; MIC [27]: 512 µg/mL"

# From article PMC7558399, “In Vitro Selective Growth-Inhibitory Activities of Phytochemicals, Synthetic Phytochemical Analogs, and Antibiotics against Diarrheagenic/Probiotic Bacteria and Cancer/Normal Intestinal Cells” (Pharmaceuticals, 2020)
